Data published in US11285161B2, “Method and composition for treating mental disorder and pain associated with nerve damage” (City University of Hong Kong, priority 2019, dated 2022).

Key:
[1] = test system: spared nerve injury (SNI) mice; experiment: Tail suspension test in spared nerve injury (SNI) mice; type: in vivo, mouse; conditions: 30 ng/kg Day 7-Day 30, tested Day 40 (10 days after discontinuation), vs SNI-saline and Sham-saline, FIG. 1A
Description: (§1) The antidepressant and analgesic activities of the compound of formula (IIb) (referred to as YM022) and the compound of formula (IIIb) (referred to as YF476) were investigated in a mouse model of spared nerve injury (SNI). The SNI model is a partial denervation model in which the injured nerves produce consistent pain hypersensitivity in the territory of the spared sural nerve, wherein the spared nerve injury can provoke depressive-like behaviors. In the experiment, depressive-like behaviors were assessed by a tail suspension test and monitoring body weight. Responses to pain were tested by measuring the sensitivity to mechanical stimulation by von Frey filaments.
(§2) For the SNI surgery, the mice were anesthetized by intraperitoneal injection of ketamine (100 mg/kg) and xylazine (15 mg/kg). […]
(§3) After SNI surgery (Day 0), the mice were treated with the compound of formula (IIb) (referred to as YM022) and the compound of formula IIIb (referred to as YF476), both at 30 ng/kg, for 24 days (Day 7-Day 30). The bodyweight of the mice were measured (FIG. 1B) and the tail suspension test (FIG. 1A) was carried out on Day 40 to assess the depressive status. […] A blinded observer monitored the test for 6 min and recorded the immobility time.

[2] = test system: spared nerve injury (SNI) mice; experiment: Body weight of SNI mice; type: in vivo, mouse; conditions: 30 ng/kg Day 7-Day 30, Day 40, vs SNI-saline, FIG. 1B
Description: as §1, §2, §3

[3] = test system: spared nerve injury (SNI) mice; experiment: Von Frey filament test in SNI mice; type: in vivo, mouse; conditions: Day 8 (after drug injection), FIG. 2
Description: as §1
For the SNI surgery, the mice were anesthetized by intraperitoneal injection of ketamine (100 mg/kg) and xylazine (15 mg/kg). The skin on the lateral surface of the left thigh was cleaned and incised, and then sterile scissors were used to expose three branches of the sciatic nerves: namely sural, common peroneal, and tibial nerves. […]
The Von Frey filament test was used 1 day before the surgery (Day-1) or on Day 1, Day 7 (after drug injection), Day 8 (after drug injection) to estimate the sensitivity of the mice to the mechanical stimulation. […] Response in three out of five stimuli was regarded as a positive reaction and the threshold level was recorded (FIG. 2).

[4] = test system: mice; experiment: Acute tail suspension test; type: in vivo, mouse; conditions: 3 μg/kg or 30 μg/kg intraperitoneally 30 minutes before test, vs saline, FIG. 3A
Protocol: After SNI surgery (Day 0), the mice were treated with the compound of formula (IIb) (referred to as YM022) and the compound of formula IIIb (referred to as YF476), both at 30 ng/kg, for 24 days (Day 7-Day 30). The bodyweight of the mice were measured (FIG. 1B) and the tail suspension test (FIG. 1A) was carried out on Day 40 to assess the depressive status. In the tail suspension test, each mouse was suspended by its tail and secured by adhesive tape to the suspension bar. A blinded observer monitored the test for 6 min and recorded the immobility time.
In another acute tail suspension test, mice were injected intraperitoneally with YM022 (3 μg/kg or 30 μg/kg), YF476 (3 μg/kg or 30 μg/kg) or saline 30 minutes before the test. The tail suspension test was then performed as described above.

[5] = test system: mice; experiment: Acute forced swim test; type: in vivo, mouse; conditions: 30 μg/kg intraperitoneally 30 minutes before test, 5-minute test, vs saline, FIG. 3B
Protocol: In the forced swim test, mice were forced to swim in a narrow cylinder from which they cannot escape. A Plexiglas cylinder (13 cm diameter and 24 cm high) containing water (22° C.±2° C.) to a depth of 10 cm was used. The mice were injected intraperitoneally with YM022 (30 μg/kg), YF476 (30 μg/kg) or saline 30 minutes before the test. After placing the animals in the cylinders, the duration of immobility during the 5-minute test were measured.

[6] = target: T1, CCK2 receptor (Homo sapiens, UniProt P32239)
T1 sequence (P32239 1-447): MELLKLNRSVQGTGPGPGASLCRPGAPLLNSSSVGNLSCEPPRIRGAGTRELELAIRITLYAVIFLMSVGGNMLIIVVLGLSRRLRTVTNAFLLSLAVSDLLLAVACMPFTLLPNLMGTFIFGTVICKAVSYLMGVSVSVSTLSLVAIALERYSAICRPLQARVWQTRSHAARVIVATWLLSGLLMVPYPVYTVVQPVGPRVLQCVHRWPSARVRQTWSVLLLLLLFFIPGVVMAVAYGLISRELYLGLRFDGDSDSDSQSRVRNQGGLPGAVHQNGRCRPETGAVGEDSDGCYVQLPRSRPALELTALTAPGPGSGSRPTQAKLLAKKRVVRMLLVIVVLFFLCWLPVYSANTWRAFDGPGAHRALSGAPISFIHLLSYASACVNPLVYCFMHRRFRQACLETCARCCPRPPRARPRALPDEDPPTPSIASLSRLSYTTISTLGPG

[7] = target: T2, CCK1 receptor (Homo sapiens, UniProt P32238); conditions: read-out: IC50 to the CCK1 receptor; cited from earlier work
T2 sequence (P32238 1-428): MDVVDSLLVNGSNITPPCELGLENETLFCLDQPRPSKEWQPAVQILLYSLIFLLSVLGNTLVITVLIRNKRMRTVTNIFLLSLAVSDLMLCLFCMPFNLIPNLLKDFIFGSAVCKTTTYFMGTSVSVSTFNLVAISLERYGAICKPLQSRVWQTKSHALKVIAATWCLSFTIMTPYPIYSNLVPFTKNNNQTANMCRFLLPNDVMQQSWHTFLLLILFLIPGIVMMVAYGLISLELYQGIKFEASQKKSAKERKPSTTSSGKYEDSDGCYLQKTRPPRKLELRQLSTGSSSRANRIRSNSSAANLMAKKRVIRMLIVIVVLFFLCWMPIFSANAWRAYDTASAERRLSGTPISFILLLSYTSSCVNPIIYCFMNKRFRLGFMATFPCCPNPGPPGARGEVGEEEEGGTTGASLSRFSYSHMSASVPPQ

[8] = target: T1, CCK2 receptor; conditions: cited from earlier work

Structure (SMILES)	immobile time in tail suspension test [1]	body weight [2]	mechanical threshold in Von Frey filament test [3]	immobile time in acute tail suspension test [4]	immobile time in forced swim test [5]	selectivity CCK2 versus CCK1 receptor [6]	IC50 [7] [nM]	IC50 [8] [nM]
CNc1cccc(NC(=O)N[C@@H]2N=C(c3ccccn3)c3ccccc3N(CC(=O)C(C)(C)C)C2=O)c1 [YF476]	reduced immobile time	increased body weight	higher mechanical threshold	less immobile time	less immobile time	selectively inhibit CCK2 receptors	500	0.11
Cc1cccc(NC(=O)N[C@@H]2N=C(c3ccccc3)c3ccccc3N(CC(=O)c3ccccc3C)C2=O)c1 [YM022]	reduced immobile time	increased body weight	higher mechanical threshold	less immobile time	less immobile time	selectively inhibit CCK2 receptors	63	0.07
